In paper PMC11620517, “Novel hydrazone compounds with broad-spectrum antiplasmodial activity and synergistic interactions with antimalarial drugs” (Antimicrobial Agents and Chemotherapy, 2024):
Where two headings read alike, the source gives them in different places.

Legend:
[1] = system: primary primate hepatocytes; assay: hepatocyte toxicity in the P. cynomolgi liver-stage assay; format: cell-based
Method: Primary primate hepatocytes were seeded in 384-well plates and used within 2–4 days ([56]). P. cynomolgi B strain parasites were inoculated and developed into hypnozoites and schizonts. CB compounds were tested in 8-point, threefold serial dilutions (100 µM to […]) for both prophylactic (4 days starting with sporozoite addition) and radical cure (4 days starting day 4 post-inoculation) modalities ([56][–][60]). The Operetta CLS imaging system and Harmony Software 4.9 (Perkin Elmer, Waltham, MA, USA) analyzed the plates, and the percentage of inhibition (PI) was calculated in Python using equation (1), where parasitic quantities (hypnozoite and schizont counts) were normalized to the negative control ([57]). Each plate included negative (DMSO) and positive (KDU691, maduramicin, tafenoquine) controls ([58]). IC50 values were determined using an 8-point, threefold dilution format and a Python-adapted grid algorithm for fitting PI to a four-parameter logistic function ([61]).

[2] = system: P. falciparum oocyst formation in Anopheles stephensi mosquitoes; assay: P. falciparum oocyst inhibition assay (SMFA); format: in vivo, Plasmodium falciparum; conditions: for Median (oocysts) / Median I % / Prevalence % / Prevalence I %: pooled from two representative experiments
Method: As previously described, P. falciparum infections were performed using SMFA with NF54 gametocyte cultures diluted to 0.3% stage V gametocytemia ([62]). Infected blood (O+ human 45% hematocrit in serum) was offered to mosquitoes for 30 minutes, and engorged mosquitoes were maintained on a 10% corn syrup solution supplemented by four concentrations of CB compounds (1, 2.5, 5, and 10 µM) at […] ([63]), with DMSO serving as a control. Eight days post-infection, mosquito midguts were dissected and stained with 0.2% mercurochrome for 30 minutes, and oocysts were quantified under a light microscope ([63]).

[3] = system: P. berghei ookinete development (Ookluc parasites); assay: P. berghei ookinete luciferase inhibition assay; format: cell-based, Plasmodium berghei; conditions: Plasmodium berghei, 24 h, read-out: IC50 (ookinete development)
Method: Mice were pretreated with phenylhydrazine [6 mg/mL, intraperitoneal injection (IP)] 3 days before intravenous injection (IV) infection with P. berghei Ookluc parasites ([19], [62]). Once parasitemia exceeded 15%, the mice received PYR (1 mg/mL, IP) ([19], [62]). Twenty-four hours after PYR treatment, infected mice were assessed for at least 10 exflagellations before blood was collected by heart puncture ([19], [62]). Infected blood (1:20 dilution) was incubated with 8-point serial dilutions (2.5–75 µM) of CB compounds for 24 hours at 19°C with gentle shaking ([62], [64]). Relative luminescence units (RLU) of mature ookinetes were measured using the Promega Nano-Glo Luciferase Assay System Kit and a SpectraMax M3 Microplate Reader (Molecular Devices, San Jose, CA, USA) after 3 minutes. Giemsa blood smears confirmed ookinetes.

[4] = system: P. berghei blood-stage parasites; assay: P. berghei blood-stage isobolograms; format: cell-based, Plasmodium berghei
Method: Antimalarial activity and IC50 values of CB-61 and five antimalarial drugs were assessed using the previously described in vitro drug luminescence assay ([14], [68]). Blood-stage isobolograms were performed to confirm synergistic combinations between CB-61 and the five drugs, following established protocols ([69]). Thirty-two-fold IC50 concentrations were used to obtain six concentration ranges for each drug combination, and then they were serially diluted five times ([67]). IC50 scores for each drug alone were determined, and FIC50 values (FIC50 = […]) were calculated and plotted ([70], [71]). The Promega Luciferase Assay System Kit was used to measure mature schizonts’ RLUs, and Giemsa blood smears confirmed the presence of schizonts ([14]).

What does the source list for `O=C(N/N=C/c1c(O)ccc2ccccc12)c1cc([N+](=O)[O-])cc([N+](=O)[O-])c1` [CB-61]?
Toxicity [1]: >10 µM; Median oocyst # ([2]; 1 μM compound): 1; Mean oocyst # excluding zeros (Range) ([2]; 1 μM compound, P. falciparum midgut infection in An. stephensi mosquitoes): 30 (0-109); Prevalence ([2]; 1 μM compound, infection prevalence in mosquitoes): 60; Median (oocysts) ([2]; 1 µM): 1; Median I % ([2]; 1 µM): 83%; Prevalence % ([2]; 1 µM): 59%; Prevalence I % ([2]; 1 µM): 31%; Median oocyst # ([2]; 2.5 μM compound): 1; Mean oocyst # excluding zeros (Range) ([2]; 2.5 μM compound, P. falciparum midgut infection in An. stephensi mosquitoes): 20 (0-65); Prevalence ([2]; 2.5 μM compound, infection prevalence in mosquitoes): 55; Median (oocysts) ([2]; 2.5 µM): 1; Median I % ([2]; 2.5 µM): 83%; Prevalence % ([2]; 2.5 µM): 55%; Prevalence I % ([2]; 2.5 µM): 36%; % inhibition (median) ([2]; 2.5 μM, single experiments): 62%; Median oocyst # ([2]; 5 μM compound): 1; Mean oocyst # excluding zeros (Range) ([2]; 5 μM compound, P. falciparum midgut infection in An. stephensi mosquitoes): 20 (0-68); Prevalence ([2]; 5 μM compound, infection prevalence in mosquitoes): 55; Median (oocysts) ([2]; 5 µM): 1; Median I % ([2]; 5 µM): 83%; Prevalence % ([2]; 5 µM): 55%; Prevalence I % ([2]; 5 µM): 36%; % inhibition (median) ([2]; 5 μM, single experiments): 58%; Mean oocyst # excluding zeros (Range) ([2]; 7.5 μM, single experiments): 15 (0-53); Median oocyst # ([2]; 7.5 μM, single experiments): 2.5; Prevalence ([2]; 7.5 μM, single experiments): 75; Median oocyst # ([2]; 10 μM compound): 0; Mean oocyst # excluding zeros (Range) ([2]; 10 μM compound, P. falciparum midgut infection in An. stephensi mosquitoes): 7 (0-30); Prevalence ([2]; 10 μM compound, infection prevalence in mosquitoes): 46; Median (oocysts) ([2]; 10 µM): 0; Median I % ([2]; 10 µM): 100%; Prevalence % ([2]; 10 µM): 46%; Prevalence I % ([2]; 10 µM): 47%; Mean oocyst # excluding zeros (Range) ([2]; 25 μM, single experiments): 1 (0-2); Median oocyst # ([2]; 25 μM, single experiments): 0; Prevalence ([2]; 25 μM, single experiments): 18; Mean oocyst # excluding zeros (Range) ([2]; 50 μM, single experiments): 1 (0-2); Median oocyst # ([2]; 50 μM, single experiments): 0; Prevalence ([2]; 50 μM, single experiments): 15; oocyst formation inhibition ([2]; 1 to 10 µM, midguts dissected 8 days after feeding): inhibited midgut oocyst formation in a dose-dependent manner; inhibition at 2.5 µM ([2]; read-out: % inhibition (mean), 2.5 μM compound, oocyst number vs DMSO control): 23%; inhibition at 5 µM ([2]; read-out: % inhibition (mean), 5 μM compound, oocyst number vs DMSO control): 23%; inhibition at 7.5 µM ([2]; read-out: % inhibition (mean), 7.5 μM, single experiments): 29%; inhibition at 10 µM ([2]; read-out: % inhibition (mean), 10 μM compound, oocyst number vs DMSO control): 72%; inhibition at 25 µM ([2]; read-out: % inhibition (mean), 25 μM, single experiments): 48%; inhibition at 50 µM ([2]; read-out: % inhibition (mean), 50 μM, single experiments): 49%; inhibition at 1 µM ([2]; read-out: % inhibition (median), 1 μM compound, oocyst number vs DMSO control): 83%; inhibition at 2.5 µM ([2]; read-out: % inhibition (median), 2.5 μM compound, oocyst number vs DMSO control): 83%; inhibition at 5 µM ([2]; read-out: % inhibition (median), 5 μM compound, oocyst number vs DMSO control): 83%; inhibition at 7.5 µM ([2]; read-out: % inhibition (median), 7.5 μM, single experiments): 79%; inhibition at 10 µM ([2]; read-out: % inhibition (median), 10 μM compound, oocyst number vs DMSO control): 100%; inhibition at 25 µM ([2]; read-out: % inhibition (median), 25 μM, single experiments): 100%; inhibition at 50 µM ([2]; read-out: % inhibition (median), 50 μM, single experiments): 100%; inhibition at 1 µM ([2]; read-out: % inhibition (prevalence), 1 μM compound, vs DMSO control): 31%; inhibition at 2.5 µM ([2]; read-out: % inhibition (prevalence), 2.5 μM compound, vs DMSO control): 36%; inhibition at 5 µM ([2]; read-out: % inhibition (prevalence), 5 μM compound, vs DMSO control): 36%; inhibition at 7.5 µM ([2]; read-out: % inhibition (prevalence), 7.5 μM, single experiments): 21%; inhibition at 10 µM ([2]; read-out: % inhibition (prevalence), 10 μM compound, vs DMSO control): 47%; inhibition at 25 µM ([2]; read-out: % inhibition (prevalence), 25 μM, single experiments): 74%; inhibition at 50 µM ([2]; read-out: % inhibition (prevalence), 50 μM, single experiments): 78%; IC50 [3]: 29.5 µM; Mean ΣFIC50 ([4]; combination with ATQ): 1.13; Mean ΣFIC50 ([4]; combination with CLIND): 0.82; Mean ΣFIC50 ([4]; combination with CQ (negative control)): 1.15; Mean ΣFIC50 ([4]; combination with DHA): 1.44; Mean ΣFIC50 ([4]; combination with HALO): 0.78; Mean ΣFIC50 ([4]; combination with LUM): 1.20
